Data published in patent publication US10632202B2, “Preservative containing compositions” (JOHNSON & JOHNSON CONSUMER INC., priority 2016, dated 2020).

System: fungi
Assay: Observed contribution of nutrients to antifungal activity
Assay type: cell-based
Details: nutrient of the antimicrobial mixture

Row | Compound | contribution to the antifungal activity of the antimicrobial mixture
1 | NCC(=O)O [glycine] | contribute minimally
2 | O=C1O[C@H]([C@@H](O)CO)C(O)=C1O [ascorbic acid] | contribute minimally
3 | CC(O)C(=O)O (stereo not shown) [lactate] | follows the glucose with regard to the significance of its contribution
4 | O=C(O)CC(O)(CC(=O)O)C(=O)O [citrate] | contribute minimally
